Assay: MRI bladder phantom permeability assay (dialysis membrane in gelatin, spin-echo MRI)
Type: physicochemical
Settings: membrane 12-14 kD MW cutoff, 425 μM Gd-DTPA, 5 mM Ferumoxytol in lumen
From the text: FIG. 2 is a schematic of synthetic model system (an MRI “bladder phantom”) where membrane porosity and soft matter diffusivity can be controlled. The MRI bladder phantom, shown in FIG. 2, was constructed from clear polycarbonate cylindrical tubes having an outer diameter of 35 mm, a wall thickness of 4 mm, and a length of 90 mm. A sealed (70 mm length, 7 mm diameter) segment of a filled wet dialysis membrane was suspended in the center of each polycarbonate tube lumen and aligned with the tube length, during which a liquid solution (3.125% w/w) of hydrolyzed collagen was added to the lumen of the tube (but not the lumen of the dialysis membrane) and allowed to gel. The dialysis membrane porosity was 12-14 kD MW cutoff. The bladder phantom was placed in a standard mouse MRI RF coil for imaging on a 3-Tesla bench top MRI system with a bore diameter of 160 mm and a 70 mm field of view (MR Solutions, Surrey, UK). […]
This dark line is indicative of a lack of hydrogen nuclei in the liquid state where the dialysis membrane is located, a position that represents the luminal surface of the bladder. […] Since the entire lumen has an increased signal intensity, it is difficult to see without quantitative tools if the gadopentetate dimeglumine (Gd-DTPA) is diffusing into the gelatin an issue that becomes more relevant in a biological setting. […]

Compound | diffusion across the dialysis membrane
CNC[C@H](O)[C@@H](O)[C@H](O)[C@H](O)CO.CNC[C@H](O)[C@@H](O)[C@H](O)[C@H](O)CO.O=C([O-])CN(CCN(CC(=O)[O-])CC(=O)O)CCN(CC(=O)[O-])CC(=O)O.[Gd+3] [Magnevist, Gadopentetate dimeglumine] | porosity large enough to allow gadopentetate dimeglumine (Gd-DTPA) to pass

Assay: not given
Settings: T1-reducing contrast agents, Table 1; cited from earlier work

Compound | Average Diameter
CNC[C@H](O)[C@@H](O)[C@H](O)[C@H](O)CO.CNC[C@H](O)[C@@H](O)[C@H](O)[C@H](O)CO.O=C([O-])CN(CCN(CC(=O)[O-])CC(=O)O)CCN(CC(=O)O)C(COCc1ccccc1)C(=O)[O-].[Gd+3] (stereo not shown) [MultiHance, Gadobenate Dimeglumine] | 11 Å
COCCNC(=O)CN(CCN(CCN(CC(=O)[O-])CC(=O)NCCOC)CC(=O)[O-])CC(=O)[O-].[Gd+3] [OptiMARK, Gadoversetamide] | 8 Å
CNC[C@H](O)[C@@H](O)[C@H](O)[C@H](O)CO.CNC[C@H](O)[C@@H](O)[C@H](O)[C@H](O)CO.O=C([O-])CN(CCN(CC(=O)[O-])CC(=O)O)CCN(CC(=O)[O-])CC(=O)O.[Gd+3] [Magnevist, Gadopentetate dimeglumine] | 10 Å
Gadoterate meglumine [Dotarem] | 9 Å
O=C([O-])CN(CCN(CC(=O)[O-])CC(COP(=O)([O-])OC1CCC(c2ccccc2)(c2ccccc2)CC1)N(CC(=O)[O-])CC(=O)[O-])CC(=O)[O-].[Gd+3].[Na+].[Na+].[Na+] (stereo not shown) [Ablavar, Gadofosveset trisodium] | 10 Å
CC(O)CN1CCN(CC(=O)[O-])CCN(CC(=O)[O-])CCN(CC(=O)[O-])CC1.[Gd+3] (stereo not shown) [ProHance, Gadoteridol] | 7 Å
O=C([O-])CN1CCN(CC(=O)[O-])CCN([C@H](CO)[C@H](O)CO)CCN(CC(=O)[O-])CC1.[Gd+3] (racemic) [Gadovist, Gadobutrol] | 8 Å
CNC(=O)CN(CCN(CCN(CC(=O)[O-])CC(=O)NC)CC(=O)[O-])CC(=O)[O-].[Gd+3] [Omniscan, Gadodiamide] | 8 Å
CCOc1ccc(CC(CN(CCN(CC(=O)[O-])CC(=O)[O-])CC(=O)[O-])N(CC(=O)[O-])CC(=O)[O-])cc1.[Gd+3].[Na+].[Na+] (stereo not shown) [Eovist, Gadoxetate Disodium] | 9 Å

— patent US12326492B2, “Systems and methods of detecting interstitial cystitis” (LIPELLA PHARMACEUTICALS, INC., priority 2014, dated 2025)
